Among the data in ChEMBL document CHEMBL3991601, “The target landscape of clinical kinase drugs” (Science, 2017) are Kd values, retold here.

For assay [1], the target named is Cyclin-dependent kinase 13 (Homo sapiens, UniProt Q14004).
Assay [2] deals with Eukaryotic translation initiation factor 2-alpha kinase 1 (Homo sapiens, UniProt Q9BQI3).
The target in assay [3] is T1, Ephrin type-B receptor 2 (Homo sapiens, UniProt P29323).
T1 sequence (P29323 whole entry): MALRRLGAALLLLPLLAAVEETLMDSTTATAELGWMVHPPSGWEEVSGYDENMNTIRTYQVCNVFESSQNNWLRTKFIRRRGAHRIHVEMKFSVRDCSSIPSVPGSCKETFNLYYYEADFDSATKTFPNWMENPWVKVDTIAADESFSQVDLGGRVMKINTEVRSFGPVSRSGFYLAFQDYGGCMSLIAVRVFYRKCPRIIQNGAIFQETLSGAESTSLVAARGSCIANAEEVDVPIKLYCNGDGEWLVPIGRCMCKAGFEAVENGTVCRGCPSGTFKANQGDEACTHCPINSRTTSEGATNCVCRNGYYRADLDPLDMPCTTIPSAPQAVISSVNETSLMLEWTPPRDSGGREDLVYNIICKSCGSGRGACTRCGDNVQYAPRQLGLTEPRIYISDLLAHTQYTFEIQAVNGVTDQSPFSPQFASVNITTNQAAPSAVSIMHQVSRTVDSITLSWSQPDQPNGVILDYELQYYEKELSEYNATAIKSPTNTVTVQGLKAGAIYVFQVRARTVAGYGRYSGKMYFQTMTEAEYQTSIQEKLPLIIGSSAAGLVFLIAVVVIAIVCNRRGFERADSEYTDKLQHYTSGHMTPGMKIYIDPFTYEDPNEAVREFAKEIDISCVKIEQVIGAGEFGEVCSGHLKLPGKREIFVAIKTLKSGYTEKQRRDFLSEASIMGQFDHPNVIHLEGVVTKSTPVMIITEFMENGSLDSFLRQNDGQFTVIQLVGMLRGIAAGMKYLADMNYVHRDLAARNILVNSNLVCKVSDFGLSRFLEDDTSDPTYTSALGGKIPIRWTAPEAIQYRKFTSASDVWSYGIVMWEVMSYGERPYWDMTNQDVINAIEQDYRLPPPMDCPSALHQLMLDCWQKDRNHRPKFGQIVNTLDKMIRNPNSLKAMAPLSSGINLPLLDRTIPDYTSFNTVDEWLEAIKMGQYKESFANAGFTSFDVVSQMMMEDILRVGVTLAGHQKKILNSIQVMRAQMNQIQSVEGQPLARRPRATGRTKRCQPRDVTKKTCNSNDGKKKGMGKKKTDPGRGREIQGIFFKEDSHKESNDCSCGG

For assay [4], the target named is T2, Ribosyldihydronicotinamide dehydrogenase [quinone] (Homo sapiens, UniProt P16083).
T2 sequence (P16083 whole entry): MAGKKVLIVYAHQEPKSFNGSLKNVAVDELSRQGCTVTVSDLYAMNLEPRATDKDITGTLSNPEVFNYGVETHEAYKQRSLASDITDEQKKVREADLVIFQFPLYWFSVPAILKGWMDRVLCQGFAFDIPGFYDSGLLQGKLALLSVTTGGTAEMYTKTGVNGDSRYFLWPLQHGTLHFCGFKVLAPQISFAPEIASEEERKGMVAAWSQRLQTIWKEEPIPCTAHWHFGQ

The target in assay [5] is T3, Bifunctional phosphoribosylaminoimidazole carboxylase/phosphoribosylaminoimidazole succinocarboxamide synthetase (Homo sapiens, UniProt P22234).
T3 sequence (P22234 whole entry): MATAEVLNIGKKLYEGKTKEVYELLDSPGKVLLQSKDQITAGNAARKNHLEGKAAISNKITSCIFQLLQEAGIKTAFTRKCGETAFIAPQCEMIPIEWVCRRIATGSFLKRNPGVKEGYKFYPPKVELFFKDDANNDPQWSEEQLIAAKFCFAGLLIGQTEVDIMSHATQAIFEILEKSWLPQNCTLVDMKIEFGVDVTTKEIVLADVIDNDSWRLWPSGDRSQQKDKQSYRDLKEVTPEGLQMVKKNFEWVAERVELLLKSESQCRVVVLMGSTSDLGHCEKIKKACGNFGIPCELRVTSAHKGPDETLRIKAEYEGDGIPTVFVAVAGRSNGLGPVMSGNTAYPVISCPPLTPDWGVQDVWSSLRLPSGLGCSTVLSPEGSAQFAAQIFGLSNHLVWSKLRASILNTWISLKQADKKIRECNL

Assay [6] deals with T4, Serine/threonine-protein kinase D3 (Homo sapiens, UniProt O94806).
T4 sequence (O94806 whole entry): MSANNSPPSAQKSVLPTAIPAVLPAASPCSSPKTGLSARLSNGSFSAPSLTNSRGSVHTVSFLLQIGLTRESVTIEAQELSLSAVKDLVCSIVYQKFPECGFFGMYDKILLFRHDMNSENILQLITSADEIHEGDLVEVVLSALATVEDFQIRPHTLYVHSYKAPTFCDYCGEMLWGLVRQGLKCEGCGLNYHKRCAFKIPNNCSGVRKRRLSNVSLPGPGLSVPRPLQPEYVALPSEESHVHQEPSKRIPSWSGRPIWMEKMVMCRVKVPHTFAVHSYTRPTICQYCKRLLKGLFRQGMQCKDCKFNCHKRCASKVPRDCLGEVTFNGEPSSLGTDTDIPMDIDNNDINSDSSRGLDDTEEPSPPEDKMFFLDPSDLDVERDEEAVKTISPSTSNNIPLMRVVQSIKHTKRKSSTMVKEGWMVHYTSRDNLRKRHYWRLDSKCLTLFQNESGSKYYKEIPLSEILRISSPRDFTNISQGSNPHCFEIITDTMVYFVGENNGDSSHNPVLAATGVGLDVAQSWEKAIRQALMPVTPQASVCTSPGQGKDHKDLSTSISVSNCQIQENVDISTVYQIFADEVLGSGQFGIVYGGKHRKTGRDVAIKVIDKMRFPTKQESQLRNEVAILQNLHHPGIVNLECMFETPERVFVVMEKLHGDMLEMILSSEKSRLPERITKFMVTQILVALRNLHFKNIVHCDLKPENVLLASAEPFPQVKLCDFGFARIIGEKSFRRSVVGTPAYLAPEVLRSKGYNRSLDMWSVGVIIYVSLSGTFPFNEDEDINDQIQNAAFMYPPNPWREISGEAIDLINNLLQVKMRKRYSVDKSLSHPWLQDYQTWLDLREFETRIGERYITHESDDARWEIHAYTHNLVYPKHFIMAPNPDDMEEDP

Assay [7] addresses 26S proteasome regulatory subunit 6B (Homo sapiens, UniProt P43686).
Assay [8] concerns the target Tyrosine-protein kinase SYK (Homo sapiens, UniProt P43405).

Calls of active or inactive are those of the source. Cut-off read from the data, not from the text of the source, for most assays here: actives have a measured Kd and inactives only a lower limit.

One may read the Kd as the equilibrium constant for the complex coming apart.
Note: in the data inactive means no Kd found up to 30 µM.

Chain of 26S proteasome regulatory subunit 6B (P43686 whole entry): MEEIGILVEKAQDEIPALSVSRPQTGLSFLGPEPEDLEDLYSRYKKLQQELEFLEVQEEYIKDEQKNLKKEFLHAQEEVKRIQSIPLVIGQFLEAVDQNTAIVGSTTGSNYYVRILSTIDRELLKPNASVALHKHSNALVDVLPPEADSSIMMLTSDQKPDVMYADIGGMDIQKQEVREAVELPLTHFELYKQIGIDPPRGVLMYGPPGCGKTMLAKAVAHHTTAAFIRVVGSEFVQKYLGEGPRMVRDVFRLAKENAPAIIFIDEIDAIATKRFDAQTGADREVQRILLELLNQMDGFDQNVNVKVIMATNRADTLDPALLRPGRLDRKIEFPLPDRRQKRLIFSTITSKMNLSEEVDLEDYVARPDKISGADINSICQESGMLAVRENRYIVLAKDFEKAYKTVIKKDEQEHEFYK
Chain of Cyclin-dependent kinase 13 (Q14004 whole entry): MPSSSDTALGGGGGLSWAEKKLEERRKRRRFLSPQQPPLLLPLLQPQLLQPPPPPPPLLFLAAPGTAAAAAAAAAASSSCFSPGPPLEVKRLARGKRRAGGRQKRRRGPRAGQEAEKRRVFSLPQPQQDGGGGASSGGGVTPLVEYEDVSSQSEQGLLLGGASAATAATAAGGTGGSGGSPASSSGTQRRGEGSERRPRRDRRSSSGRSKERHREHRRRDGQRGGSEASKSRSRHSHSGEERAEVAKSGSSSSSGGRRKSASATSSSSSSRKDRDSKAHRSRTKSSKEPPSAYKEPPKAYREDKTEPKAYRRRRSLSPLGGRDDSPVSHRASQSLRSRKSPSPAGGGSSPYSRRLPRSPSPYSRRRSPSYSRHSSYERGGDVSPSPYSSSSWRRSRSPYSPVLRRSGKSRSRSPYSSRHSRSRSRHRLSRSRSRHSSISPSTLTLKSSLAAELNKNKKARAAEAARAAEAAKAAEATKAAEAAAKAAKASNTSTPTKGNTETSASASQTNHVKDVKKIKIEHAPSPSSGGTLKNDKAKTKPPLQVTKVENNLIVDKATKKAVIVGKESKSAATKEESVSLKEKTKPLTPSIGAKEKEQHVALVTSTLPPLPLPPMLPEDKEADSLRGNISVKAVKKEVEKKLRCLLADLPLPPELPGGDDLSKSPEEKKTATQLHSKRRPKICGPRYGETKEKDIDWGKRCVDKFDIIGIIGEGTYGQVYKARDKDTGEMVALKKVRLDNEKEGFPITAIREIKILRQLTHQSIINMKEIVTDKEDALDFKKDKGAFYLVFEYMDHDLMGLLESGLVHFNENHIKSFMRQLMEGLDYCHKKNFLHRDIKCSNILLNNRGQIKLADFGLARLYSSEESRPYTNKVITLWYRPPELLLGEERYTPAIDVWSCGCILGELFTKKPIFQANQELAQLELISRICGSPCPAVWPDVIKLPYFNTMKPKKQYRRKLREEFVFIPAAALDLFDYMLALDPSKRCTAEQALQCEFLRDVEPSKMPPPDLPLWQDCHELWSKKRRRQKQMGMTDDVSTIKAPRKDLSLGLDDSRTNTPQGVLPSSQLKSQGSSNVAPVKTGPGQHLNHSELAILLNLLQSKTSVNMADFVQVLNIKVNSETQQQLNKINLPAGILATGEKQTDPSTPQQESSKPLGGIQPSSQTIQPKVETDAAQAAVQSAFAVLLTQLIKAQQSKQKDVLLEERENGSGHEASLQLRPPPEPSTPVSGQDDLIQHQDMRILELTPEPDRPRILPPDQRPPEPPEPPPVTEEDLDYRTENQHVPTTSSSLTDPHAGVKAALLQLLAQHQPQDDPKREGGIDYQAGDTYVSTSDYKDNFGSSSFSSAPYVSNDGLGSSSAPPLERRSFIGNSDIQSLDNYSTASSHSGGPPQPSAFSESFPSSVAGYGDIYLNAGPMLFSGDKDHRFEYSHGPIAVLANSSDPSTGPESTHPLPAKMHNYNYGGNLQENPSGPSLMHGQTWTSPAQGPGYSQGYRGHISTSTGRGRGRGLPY
Chain of Eukaryotic translation initiation factor 2-alpha kinase 1 (Q9BQI3 whole entry): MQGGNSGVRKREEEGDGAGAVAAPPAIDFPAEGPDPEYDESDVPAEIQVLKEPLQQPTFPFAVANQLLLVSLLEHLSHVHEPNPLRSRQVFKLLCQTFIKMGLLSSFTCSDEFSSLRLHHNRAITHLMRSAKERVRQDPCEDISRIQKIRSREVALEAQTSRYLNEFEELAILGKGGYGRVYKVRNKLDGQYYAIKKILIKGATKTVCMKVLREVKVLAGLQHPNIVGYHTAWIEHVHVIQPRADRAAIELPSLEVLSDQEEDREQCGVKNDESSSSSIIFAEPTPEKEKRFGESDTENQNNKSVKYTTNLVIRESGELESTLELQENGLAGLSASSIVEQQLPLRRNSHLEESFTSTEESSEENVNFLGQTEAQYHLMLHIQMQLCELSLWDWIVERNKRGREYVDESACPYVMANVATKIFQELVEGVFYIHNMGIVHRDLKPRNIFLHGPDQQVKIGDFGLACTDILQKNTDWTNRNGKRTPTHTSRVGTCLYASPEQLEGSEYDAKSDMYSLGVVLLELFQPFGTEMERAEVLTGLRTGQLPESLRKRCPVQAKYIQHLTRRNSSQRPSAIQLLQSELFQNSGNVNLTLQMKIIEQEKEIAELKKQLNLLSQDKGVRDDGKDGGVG

In the case of `COc1ccc2c(OCc3nnc4ccc(-c5ccccc5)nn34)ccnc2c1` [AMG-208], the Kd in assay [1], in assay [2], in assay [3], in assay [4], in assay [5] and in assay [6] was > 30 µM (inactive) in each case. The Kd in assay [7] and in assay [8] was > 30 µM (inactive) throughout.
Consider `Cc1cc(-c2cc(OC(=O)c3ccccc3)ccc2Cl)cc2nnc(Nc3ccc(OCCN4CCCC4)cc3)nc12` [TG100-801], for which the Kd was > 30 µM (inactive) in assay [1]; > 30 µM (inactive) in assay [2]; 1.3 µM (active) in assay [3]; > 30 µM (inactive) in assay [4]; > 30 µM (inactive) in assay [5]; > 30 µM (inactive) in assay [6]. Moreover, the Kd in assay [7] and in assay [8] was > 30 µM (inactive) each time.
In the case of `O=C(NC[C@H](O)CO)c1ccncc1Nc1ccc(I)cc1F` [PIMASERTIB], the Kd in assay [1], in assay [2], in assay [3], in assay [4], in assay [5] and in assay [6] was > 30 µM (inactive) in each case. The Kd in assay [7] and in assay [8] was > 30 µM (inactive) each time.
As for `c1cc(OCCN2CCCCC2)cc(-c2n[nH]c3ccc(-c4nc[nH]n4)cc23)c1` [CC-401], the Kd in assay [1] is > 30 µM (inactive); in assay [2], > 30 µM (inactive); in assay [3] it was > 30 µM (inactive); in assay [4], 1.41 µM (active); in assay [5], > 30 µM (inactive); in assay [6], 0.09 µM (active). Moreover, the Kd in assay [7] and in assay [8] was > 30 µM (inactive) each time.
For the compound `NC(=O)c1ccc(N(C(N)=O)c2c(F)cccc2F)nc1-c1ccc(F)cc1F` [VX-702], the Kd in assay [1], in assay [2], in assay [3], in assay [4], in assay [5] and in assay [6] was > 30 µM (inactive) in each case. Moreover, the Kd in assay [7] and in assay [8] was > 30 µM (inactive) throughout.
`CC[C@@](C)(Nc1ccnc(-c2c[nH]c3ncccc23)n1)C(=O)NCC(F)(F)F` [DECERNOTINIB]: the Kd in assay [1], in assay [2], in assay [3], in assay [4], in assay [5] and in assay [6] was > 30 µM (inactive) in each case. Besides, the Kd in assay [7] and in assay [8] was > 30 µM (inactive) each time.
On to `CC(C)CC(=O)Nc1[nH]nc2c1CN(C(=O)C1CCN(C)CC1)C2(C)C` [PHA-793887], for which the Kd in assay [1] was 3.58 µM (active); in assay [2], > 30 µM (inactive); in assay [3] it was > 30 µM (inactive); in assay [4] it was > 30 µM (inactive); in assay [5], > 30 µM (inactive); in assay [6] it was 0.065 µM (active). The Kd in assay [7] and in assay [8] was > 30 µM (inactive) in each case.
Take `COc1cc2ncnc(Nc3ccc(O)cc3)c2cc1OC` [WHI-P131]: the Kd in assay [1], in assay [2], in assay [3], in assay [4], in assay [5] and in assay [6] was > 30 µM (inactive) each time. Besides, the Kd in assay [7] and in assay [8] was > 30 µM (inactive) throughout.
`CNC(=O)c1cc(COc2nnc(Nc3ccc(Cl)cc3)c3ccoc23)ccn1` [TELATINIB]: the Kd in assay [1], in assay [2], in assay [3], in assay [4], in assay [5] and in assay [6] was > 30 µM (inactive) in each case. The Kd in assay [7] and in assay [8] was > 30 µM (inactive) in each case.
With `COc1cccc(Nc2ncnn3ccc(CN4CC[C@@H](N)[C@H](O)C4)c23)c1` [BMS-690514], the Kd was > 30 µM (inactive) in assay [1]; > 30 µM (inactive) in assay [2]; > 30 µM (inactive) in assay [3]; > 30 µM (inactive) in assay [4]; > 30 µM (inactive) in assay [5]; 0.493 µM (active) in assay [6]. Further, the Kd in assay [7] and in assay [8] was > 30 µM (inactive) in each case.
For the compound `S=C(NCc1ccc2c(c1)OCO2)N1CCN(c2ncnc3c2oc2ccccc23)CC1` [AMUVATINIB], the Kd in assay [1], in assay [2], in assay [3], in assay [4], in assay [5] and in assay [6] was > 30 µM (inactive) each time. Also, the Kd in assay [7] and in assay [8] was > 30 µM (inactive) each time.
Consider `COc1cc(F)c(F)c(Nc2ccc(I)cc2F)c1NS(=O)(=O)C1(C[C@H](O)CO)CC1` [REFAMETINIB], for which the Kd in assay [1], in assay [2], in assay [3], in assay [4], in assay [5] and in assay [6] was > 30 µM (inactive) throughout. Besides, the Kd in assay [7] and in assay [8] was > 30 µM (inactive) each time.
For the compound `Cc1ccc(C(=O)Nc2ccc(Oc3cc4cnn(C)c4cc3-c3cn[nH]c3)c(F)c2)c(=O)n1-c1ccc(F)cc1` [MERESTINIB], the Kd in assay [1], in assay [2], in assay [3], in assay [4], in assay [5] and in assay [6] was > 30 µM (inactive) in each case. The Kd in assay [7] and in assay [8] was > 30 µM (inactive) each time.
